≈ marks a conversion by molar mass, not a printed value. Where two headings read alike, the source gives them in different places. Non-standard residues stand in square brackets, D forms with d. Residues, ends and D or L forms follow the SMILES beside them. Hyp = O=C(O)[C@@H]1C[C@@H](O)CN1
Experiments:
NA [1] = details: cited from earlier work
Description: (§1) To determine the mode of action of the NA-inhibitory peptide, a Lineweaver–Burk kinetic model was used to explore the relationship between the reaction rate and the substrate concentration.

NA [2] = details: no reference given; cited from earlier work
Description: as §1

[3] = molecular target: T1, Influenza virus H1N1 neuraminidase (NA) (Influenza A virus, UniProt P03468); assay type: biochemical; details: relative to hydrolysates (<5000 Da), from the IC50 values
[4] = molecular target: T1, Influenza virus H1N1 neuraminidase (NA); experiment: NA inhibition mode, Lineweaver–Burk kinetics; assay type: biochemical; details: Lineweaver–Burk plot
Description: The mode of NA inhibition was determined according to the previous method with slight modifications. Various concentrations of MUNANA (1.25, 2.5, 5, 10 and 20 μM) were incubated with NA in the absence or presence (0–2.5 mg/mL) of the peptide P at 37 °C. The inhibition kinetics of NA in the presence of peptide P was determined based on the Lineweaver–Burk plot. The inhibitor constant Ki was calculated by plotting 1/Vmax versus the concentrations of peptide P.

[5] = system: influenza virus A/Puerto Rico/8/1934 (H1N1) in MDCK cells
[6] = system: influenza virus H1N1 (HA titer, chicken red blood cells); parameters: species or system influenza A H1N1 virus
[7] = system: pepsin, chymotrypsin, trypsin; experiment: Simulated in vitro gastrointestinal digestion, NA inhibition read-out; assay type: in vitro ADME; details: 10 mg/mL, pepsin pH 2.0, 37 °C, 2 h, then chymotrypsin pH 7.5, 37 °C, 1 h, three replicates
Description: Simulated digestion assay was performed according to the previous method with slight modifications. The NA-inhibitory peptide was dissolved in deionized water to prepare 10 mg/mL solution. The pH was adjusted to 2.0 with 1 mol/L HCl and then pepsin (2.86% of the substrate, dry basis) was added. Digestion was performed at 37 °C for 2 h, followed by boiling for 10 min to stop the enzyme activation. Subsequently, the pH was adjusted to 7.5 with 0.2 mol/L NaOH. After adding chymotrypsin (4.00% of substrate, dry basis), the reaction was carried out at 37 °C for 1 h. The sample was submerged in a 95 °C water bath for 10 min to terminate the enzymatic digestion and cooled on ice to room temperature. Then, trypsin (4.00% of substrate, dry basis) was added, and the above steps were repeated. Afterwards, the digested mixtures were centrifuged at 10,000× g for 10 min to obtain the digestive juices. The NA inhibition assay in digestive juices was detected as described above.

MDCK cells = experiment: Cytotoxicity test by MTT assay; assay type: cell-based, canine; details: 48 h
Description: The MTT assay was used to determine the effect of the peptide on the viability of MDCK cells. The 96-well plates were used to culture the MDCK cells. After adding 10 μL of PBS containing MTT (0.5 mg/mL) into each well, the solution was incubated at 37 °C for 4 h. After removing the supernatant, 200 μL of DMSO was added into each well. The optical density (OD) for each well was determined at 570 nm. The IC50 was calculated as the concentration of the sample at which the number of viable cells was decreased to 50% of that in the cell control.

[8] = system: influenza virus A/Puerto Rico/8/1934 (H1N1) in MDCK cells; remark: listed apart in the source
ACE = details: cited from earlier work
[9] = influenza virus A/Puerto Rico/8/1934 in MDCK cells, 1 h, 250 μg/mL

T1 sequence (P03468 whole entry, looked up): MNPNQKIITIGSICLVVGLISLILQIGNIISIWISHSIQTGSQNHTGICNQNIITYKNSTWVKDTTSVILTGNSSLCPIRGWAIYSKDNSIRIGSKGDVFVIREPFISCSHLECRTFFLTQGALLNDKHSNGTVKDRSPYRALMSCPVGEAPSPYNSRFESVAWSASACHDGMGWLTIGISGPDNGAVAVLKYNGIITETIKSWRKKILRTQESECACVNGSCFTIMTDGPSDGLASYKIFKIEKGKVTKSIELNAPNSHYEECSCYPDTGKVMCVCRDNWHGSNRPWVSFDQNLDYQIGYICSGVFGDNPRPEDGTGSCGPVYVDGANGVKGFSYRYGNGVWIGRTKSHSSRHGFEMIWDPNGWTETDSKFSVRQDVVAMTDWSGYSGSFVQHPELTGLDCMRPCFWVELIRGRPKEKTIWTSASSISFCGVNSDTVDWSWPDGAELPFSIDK

2-hydroxy-3-methyl-3-butenyl alkyl [HMB]
Mode of NA inhibition (NA [1]): non-competitive | IC50 (NA [1]; read-out: IC50 for NA): 12.3 µM | Ki (NA [1]; read-out: Ki for NA): 14 ± 1.5 µM

CCOC(=O)C1=C[C@@H](OC(CC)CC)[C@H](NC(C)=O)[C@@H](N)C1 [oseltamivir]
Mode of NA inhibition (NA [2]): competitive

CC(C)C[C@H](NC(=O)CNC(=O)[C@H](CCC(N)=O)NC(=O)[C@@H]1CCCN1C(=O)CNC(=O)[C@@H]1C[C@@H](O)CN1C(=O)[C@@H](NC(=O)CNC(=O)[C@@H]1C[C@@H](O)CN1C(=O)[C@@H]1CCCN1C(=O)CNC(=O)[C@H](C)NC(=O)[C@@H](NC(=O)CNC(=O)[C@H](C)NC(=O)[C@H](CCC(=O)O)NC(=O)CNC(=O)[C@H](CO)NC(=O)[C@@H]1CCCN1C(=O)CNC(=O)[C@H](CCCCN)NC(=O)[C@H](CCC(=O)O)NC(=O)CNC(=O)[C@@H]1C[C@@H](O)CN1)[C@@H](C)O)[C@@H](C)O)C(=O)O [peptide P] (H-[Hyp]GEKGPSGEAGTAGP[Hyp]GT[Hyp]GPQGL-OH; N-terminus and C-terminus assumed)
Purification Fold [3]: 7.19 | Mode of NA inhibition [4]: competitive | Inhibition rate, added after the infection (after-adsorption) [5]: approximately 31.5% | Inhibition ratio, during viral adsorption [5, 9]: 58% | Inhibition ratio, pretreatment (added before viral adsorption) [5, 9]: 73% | HA titer of the virus [6]: significantly reduce the virus titer | NA-inhibitory activity after simulated in vitro gastrointestinal digestion [7]: significantly decreased | NA-inhibitory activity after simulated in vitro gastrointestinal digestion ([7]; listed as NA-inhibitory peptide): almost inactivated | Cytotoxicity in MDCK cells (MDCK cells; concentration of 250 μg/mL or less (p > 0.05)): no significant cytotoxicity | Viability of MDCK cells (MDCK cells; concentrations over 250 μg/mL (p < 0.05)): significantly reduced the viability | Effect on cytopathic effect (CPE) [8]: significantly reduced the cytopathic effect | EC50 against H1N1 ([8]; influenza virus A/Puerto Rico/8/1934 in MDCK cells, 48 h): 471 ± 12 µg/mL (≈ 218 µM) | Inhibition of H1N1 ([8]; influenza virus A/Puerto Rico/8/1934 in MDCK cells, 48 h, 250 μg/mL): 42%

NC(=O)c1ncn([C@@H]2O[C@H](CO)[C@@H](O)[C@H]2O)n1 [ribavirin, Ribavirin, reference compound]
Inhibition ratio, positive control ([5]; positive control in the time-of-addition experiment): 75%

Trp-Leu
ACE inhibitory activity after simulated digestion (ACE): completely preserved

Source: PMC6213599 (Marine Drugs, 2018)
